These results are taken from publication PMC4364393 (Journal of medicinal chemistry, 2015).

Values after ≈ are worked out from the molar mass of the structure shown. Like-named read-outs stand apart in the source and are kept apart here.

Assay [1] concerns E. faecalis (Van B) ATCC 51299. In words: MIC, E. faecalis. The format is cell-based, Enterococcus faecalis.
Assay [2] has as its system E. faecalis (Van S) ATCC 29212. In words: MIC, E. faecalis. Conditions: Enterococcus faecalis, ATCC29212, read-out: MIC, E. faecalis (Van S) ATCC 29212. The format is cell-based.
Assay [3] has as its system E. faecalis (Van A) MMX 486. In words: MIC, E. faecalis. The format is cell-based. Conditions: Enterococcus faecalis, read-out: MIC, E. faecalis (Van A) MMX 486.
The test system of assay [4] is Van A phenotype VRE strain. Conditions: cited from earlier work.

As for “G4-decanoyl vancomycin derivative [Compound 9b]”, in assay [1] (fold improvement of MIC, compared with vancomycin), the “times more active against a VRE strain (Van B phenotype)” value is 64 times. Usually MIC stands for the smallest concentration in the dilution series that meets the test's criterion for growth inhibition. With `CC(=O)NC[C@H]1CN(c2ccc(N3CCOCC3)c(F)c2)C(=O)O1` [Linezolid, linezolid], the MIC in assay [1] (Enterococcus faecalis, ATCC51299, read-out: MIC, E. faecalis (Van B) ATCC 51299) stood at 2 µg/mL (≈ 5.93 µM); in assay [2] it was 2 µg/mL (≈ 5.93 µM); in assay [3], 2 µg/mL (≈ 5.93 µM).

Take teicoplanin A2-2: the “MIC against Van A phenotype VRE strain” value in assay [4] is 128 µg/mL.

Take `CN[C@H](CC(C)C)C(=O)N[C@H]1C(=O)N[C@@H](CC(N)=O)C(=O)N[C@H]2C(=O)N[C@H]3C(=O)N[C@H](C(=O)N[C@H](C(=O)O)c4cc(O)cc(O)c4-c4cc3ccc4O)[C@H](O)c3ccc(c(Cl)c3)Oc3cc2cc(c3O[C@@H]2O[C@H](CO)[C@@H](O)[C@H](O)[C@H]2O[C@H]2C[C@](C)(N)[C@H](O)[C@H](C)O2)Oc2ccc(cc2Cl)[C@H]1O` [Vancomycin, vancomycin]: the “MIC against Van A phenotype VRE strain” value in assay [4] (based on a literature report) is 512 µg/mL (≈ 353 µM).
